PubChem BioAssay (NCI)
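Exposure lasted 48 hours, with cells grown in 96-well plates and compounds tested at five concentrations. Definition used: TGI = concentration required for complete inhibition of growth.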

Columns and labels:
Assay in all cases: NCI anticancer screen, dose series, 48 h
786-0 renal = tested on: 786-0 renal
A498 renal = tested on: A498 renal
A549 NSCLC = tested on: A549 NSCLC
ACHN renal = tested on: ACHN renal
CAKI-1 renal = tested on: CAKI-1 renal
CCRF-CEM leukemia = tested on: CCRF-CEM leukemia
COLO 205 colon = tested on: COLO 205 colon
DMS 114 small cell lung = tested on: DMS 114 small cell lung
EKVX NSCLC = tested on: EKVX NSCLC
HCC-2998 colon = tested on: HCC-2998 colon
HCT-116 colon = tested on: HCT-116 colon
HCT-15 colon = tested on: HCT-15 colon
HL-60(TB) leukemia = tested on: HL-60(TB) leukemia
HOP-62 NSCLC = tested on: HOP-62 NSCLC
HT29 colon = tested on: HT29 colon
IGROV1 ovarian = tested on: IGROV1 ovarian
K-562 leukemia = tested on: K-562 leukemia
KM12 colon = tested on: KM12 colon
KM20L2 colon = tested on: KM20L2 colon
LOX IMVI melanoma = tested on: LOX IMVI melanoma
M14 melanoma = tested on: M14 melanoma
M19-MEL melanoma = tested on: M19-MEL melanoma
MALME-3M melanoma = tested on: MALME-3M melanoma
MOLT-4 leukemia = tested on: MOLT-4 leukemia
NCI-H226 lung = tested on: NCI-H226 lung
NCI-H23 lung = tested on: NCI-H23 lung
NCI-H460 lung = tested on: NCI-H460 lung
NCI-H522 lung = tested on: NCI-H522 lung
OVCAR-3 ovarian = tested on: OVCAR-3 ovarian
OVCAR-4 ovarian = tested on: OVCAR-4 ovarian
OVCAR-5 ovarian = tested on: OVCAR-5 ovarian
OVCAR-8 ovarian = tested on: OVCAR-8 ovarian
RPMI-8226 leukemia = tested on: RPMI-8226 leukemia
RXF 393 renal = tested on: RXF 393 renal
SF-268 CNS = tested on: SF-268 CNS
SF-295 CNS = tested on: SF-295 CNS
SF-539 CNS = tested on: SF-539 CNS
SK-MEL-2 melanoma = tested on: SK-MEL-2 melanoma
SK-MEL-28 melanoma = tested on: SK-MEL-28 melanoma
SK-MEL-5 melanoma = tested on: SK-MEL-5 melanoma
SK-OV-3 ovarian = tested on: SK-OV-3 ovarian
SN12C renal = tested on: SN12C renal
SNB-19 CNS = tested on: SNB-19 CNS
SNB-75 CNS = tested on: SNB-75 CNS
SNB-78 CNS = tested on: SNB-78 CNS
SR leukemia = tested on: SR leukemia
SW-620 colon = tested on: SW-620 colon
TK-10 renal = tested on: TK-10 renal
U251 CNS = tested on: U251 CNS
UACC-257 melanoma = tested on: UACC-257 melanoma
UACC-62 melanoma = tested on: UACC-62 melanoma
UO-31 renal = tested on: UO-31 renal
DLD-1 colon = tested on: DLD-1 colon
DMS 273 small cell lung = tested on: DMS 273 small cell lung
HOP-92 NSCLC = tested on: HOP-92 NSCLC
LXFL 529 NSCLC = tested on: LXFL 529 NSCLC

CN(C)C(=S)/N=c1\ss/c(=N\C(=S)N(C)C)n1C1CCCCC1
TGI (786-0 renal): > 100 µM | TGI (A498 renal): > 100 µM | TGI (A549 NSCLC): > 100 µM | TGI (ACHN renal): > 100 µM | TGI (CAKI-1 renal): > 100 µM | TGI (CCRF-CEM leukemia): > 100 µM | TGI (COLO 205 colon): > 100 µM | TGI (DMS 114 small cell lung): 24.2 µM | TGI (EKVX NSCLC): > 100 µM | TGI (HCC-2998 colon): > 100 µM | TGI (HCT-116 colon): > 100 µM | TGI (HCT-15 colon): > 100 µM | TGI (HL-60(TB) leukemia): > 100 µM | TGI (HOP-62 NSCLC): > 100 µM | TGI (HT29 colon): 43.8 µM | TGI (IGROV1 ovarian): > 100 µM | TGI (K-562 leukemia): > 100 µM | TGI (KM12 colon): > 100 µM | TGI (KM20L2 colon): > 100 µM | TGI (LOX IMVI melanoma): > 100 µM | TGI (M14 melanoma): > 100 µM | TGI (M19-MEL melanoma): > 100 µM | TGI (MALME-3M melanoma): > 100 µM | TGI (MOLT-4 leukemia): > 100 µM | TGI (NCI-H226 lung): > 100 µM | TGI (NCI-H23 lung): > 100 µM | TGI (NCI-H460 lung): 15.5 µM | TGI (NCI-H522 lung): > 100 µM | TGI (OVCAR-3 ovarian): > 100 µM | TGI (OVCAR-4 ovarian): 63 µM | TGI (OVCAR-5 ovarian): > 100 µM | TGI (OVCAR-8 ovarian): > 100 µM | TGI (RPMI-8226 leukemia): > 100 µM | TGI (RXF 393 renal): > 100 µM | TGI (SF-268 CNS): > 100 µM | TGI (SF-295 CNS): > 100 µM | TGI (SF-539 CNS): > 100 µM | TGI (SK-MEL-2 melanoma): > 100 µM | TGI (SK-MEL-28 melanoma): > 100 µM | TGI (SK-MEL-5 melanoma): > 100 µM | TGI (SK-OV-3 ovarian): > 100 µM | TGI (SN12C renal): > 100 µM | TGI (SNB-19 CNS): > 100 µM | TGI (SNB-75 CNS): > 100 µM | TGI (SNB-78 CNS): > 100 µM | TGI (SR leukemia): > 100 µM | TGI (SW-620 colon): > 100 µM | TGI (TK-10 renal): > 100 µM | TGI (U251 CNS): > 100 µM | TGI (UACC-257 melanoma): > 100 µM | TGI (UACC-62 melanoma): > 100 µM | TGI (UO-31 renal): > 100 µM

Cc1ccc(-c2cc(=S)n(-c3ccccc3)c3nc(=S)n(-c4ccccc4)c(N)c23)cc1
TGI (786-0 renal): > 100 µM | TGI (A549 NSCLC): > 100 µM | TGI (ACHN renal): > 100 µM | TGI (CAKI-1 renal): > 100 µM | TGI (CCRF-CEM leukemia): > 100 µM | TGI (COLO 205 colon): > 100 µM | TGI (DLD-1 colon): > 100 µM | TGI (DMS 114 small cell lung): > 100 µM | TGI (DMS 273 small cell lung): > 100 µM | TGI (HCC-2998 colon): > 100 µM | TGI (HCT-116 colon): > 100 µM | TGI (HCT-15 colon): > 100 µM | TGI (HL-60(TB) leukemia): > 100 µM | TGI (HOP-62 NSCLC): > 100 µM | TGI (HOP-92 NSCLC): > 100 µM | TGI (HT29 colon): > 100 µM | TGI (IGROV1 ovarian): > 100 µM | TGI (K-562 leukemia): > 100 µM | TGI (KM12 colon): > 100 µM | TGI (KM20L2 colon): > 100 µM | TGI (LXFL 529 NSCLC): > 100 µM | TGI (M14 melanoma): > 100 µM | TGI (M19-MEL melanoma): > 100 µM | TGI (MALME-3M melanoma): > 100 µM | TGI (MOLT-4 leukemia): > 100 µM | TGI (NCI-H226 lung): > 100 µM | TGI (NCI-H23 lung): > 100 µM | TGI (NCI-H460 lung): > 100 µM | TGI (NCI-H522 lung): > 100 µM | TGI (OVCAR-3 ovarian): > 100 µM | TGI (OVCAR-4 ovarian): > 100 µM | TGI (OVCAR-5 ovarian): > 100 µM | TGI (OVCAR-8 ovarian): > 100 µM | TGI (RPMI-8226 leukemia): > 100 µM | TGI (SF-268 CNS): > 100 µM | TGI (SF-295 CNS): > 100 µM | TGI (SF-539 CNS): > 100 µM | TGI (SK-MEL-2 melanoma): > 100 µM | TGI (SK-MEL-28 melanoma): > 100 µM | TGI (SK-MEL-5 melanoma): > 100 µM | TGI (SNB-19 CNS): > 100 µM | TGI (SNB-75 CNS): > 100 µM | TGI (SR leukemia): > 100 µM | TGI (SW-620 colon): > 100 µM | TGI (TK-10 renal): > 100 µM | TGI (U251 CNS): > 100 µM | TGI (UACC-257 melanoma): > 100 µM | TGI (UACC-62 melanoma): > 100 µM | TGI (UO-31 renal): > 100 µM

CCCC12Cc3c(OC)ccc(OC)c3CC(Cc3c(OC)ccc(OC)c31)C2=O (stereo not given)
TGI (786-0 renal): > 100 µM | TGI (A498 renal): > 100 µM | TGI (A549 NSCLC): > 100 µM | TGI (ACHN renal): > 100 µM | TGI (CAKI-1 renal): > 100 µM | TGI (CCRF-CEM leukemia): > 100 µM | TGI (DLD-1 colon): > 100 µM | TGI (DMS 114 small cell lung): > 100 µM | TGI (DMS 273 small cell lung): > 100 µM | TGI (EKVX NSCLC): > 100 µM | TGI (HCC-2998 colon): > 100 µM | TGI (HCT-116 colon): > 100 µM | TGI (HCT-15 colon): > 100 µM | TGI (HL-60(TB) leukemia): > 100 µM | TGI (HOP-62 NSCLC): > 100 µM | TGI (HT29 colon): > 100 µM | TGI (K-562 leukemia): > 100 µM | TGI (KM12 colon): > 100 µM | TGI (LXFL 529 NSCLC): > 100 µM | TGI (M14 melanoma): > 100 µM | TGI (M19-MEL melanoma): > 100 µM | TGI (MALME-3M melanoma): > 100 µM | TGI (MOLT-4 leukemia): > 100 µM | TGI (NCI-H226 lung): > 100 µM | TGI (NCI-H23 lung): > 100 µM | TGI (NCI-H460 lung): > 100 µM | TGI (NCI-H522 lung): > 100 µM | TGI (OVCAR-3 ovarian): > 100 µM | TGI (OVCAR-4 ovarian): > 100 µM | TGI (OVCAR-5 ovarian): > 100 µM | TGI (OVCAR-8 ovarian): > 100 µM | TGI (RXF 393 renal): > 100 µM | TGI (SF-268 CNS): > 100 µM | TGI (SF-295 CNS): > 100 µM | TGI (SF-539 CNS): > 100 µM | TGI (SK-MEL-2 melanoma): > 100 µM | TGI (SK-MEL-28 melanoma): > 100 µM | TGI (SK-MEL-5 melanoma): > 100 µM | TGI (SK-OV-3 ovarian): > 100 µM | TGI (SN12C renal): > 100 µM | TGI (SNB-19 CNS): > 100 µM | TGI (SNB-75 CNS): > 100 µM | TGI (SNB-78 CNS): > 100 µM | TGI (SR leukemia): > 100 µM | TGI (SW-620 colon): > 100 µM | TGI (TK-10 renal): > 100 µM | TGI (U251 CNS): > 100 µM | TGI (UACC-257 melanoma): > 100 µM | TGI (UO-31 renal): > 100 µM
